The IC50 is the concentration that gives 50% inhibition.

SMILES strings stand for the structures. Where a name gives a salt, the structure may show the parent alone.

For one assay, the target named is T1, human Nav1.8 (hNav1.8) ion channel (Homo sapiens, UniProt Q9Y5Y9).
T1 construct: expressed in transfected cells
T1 sequence (Q9Y5Y9 whole entry): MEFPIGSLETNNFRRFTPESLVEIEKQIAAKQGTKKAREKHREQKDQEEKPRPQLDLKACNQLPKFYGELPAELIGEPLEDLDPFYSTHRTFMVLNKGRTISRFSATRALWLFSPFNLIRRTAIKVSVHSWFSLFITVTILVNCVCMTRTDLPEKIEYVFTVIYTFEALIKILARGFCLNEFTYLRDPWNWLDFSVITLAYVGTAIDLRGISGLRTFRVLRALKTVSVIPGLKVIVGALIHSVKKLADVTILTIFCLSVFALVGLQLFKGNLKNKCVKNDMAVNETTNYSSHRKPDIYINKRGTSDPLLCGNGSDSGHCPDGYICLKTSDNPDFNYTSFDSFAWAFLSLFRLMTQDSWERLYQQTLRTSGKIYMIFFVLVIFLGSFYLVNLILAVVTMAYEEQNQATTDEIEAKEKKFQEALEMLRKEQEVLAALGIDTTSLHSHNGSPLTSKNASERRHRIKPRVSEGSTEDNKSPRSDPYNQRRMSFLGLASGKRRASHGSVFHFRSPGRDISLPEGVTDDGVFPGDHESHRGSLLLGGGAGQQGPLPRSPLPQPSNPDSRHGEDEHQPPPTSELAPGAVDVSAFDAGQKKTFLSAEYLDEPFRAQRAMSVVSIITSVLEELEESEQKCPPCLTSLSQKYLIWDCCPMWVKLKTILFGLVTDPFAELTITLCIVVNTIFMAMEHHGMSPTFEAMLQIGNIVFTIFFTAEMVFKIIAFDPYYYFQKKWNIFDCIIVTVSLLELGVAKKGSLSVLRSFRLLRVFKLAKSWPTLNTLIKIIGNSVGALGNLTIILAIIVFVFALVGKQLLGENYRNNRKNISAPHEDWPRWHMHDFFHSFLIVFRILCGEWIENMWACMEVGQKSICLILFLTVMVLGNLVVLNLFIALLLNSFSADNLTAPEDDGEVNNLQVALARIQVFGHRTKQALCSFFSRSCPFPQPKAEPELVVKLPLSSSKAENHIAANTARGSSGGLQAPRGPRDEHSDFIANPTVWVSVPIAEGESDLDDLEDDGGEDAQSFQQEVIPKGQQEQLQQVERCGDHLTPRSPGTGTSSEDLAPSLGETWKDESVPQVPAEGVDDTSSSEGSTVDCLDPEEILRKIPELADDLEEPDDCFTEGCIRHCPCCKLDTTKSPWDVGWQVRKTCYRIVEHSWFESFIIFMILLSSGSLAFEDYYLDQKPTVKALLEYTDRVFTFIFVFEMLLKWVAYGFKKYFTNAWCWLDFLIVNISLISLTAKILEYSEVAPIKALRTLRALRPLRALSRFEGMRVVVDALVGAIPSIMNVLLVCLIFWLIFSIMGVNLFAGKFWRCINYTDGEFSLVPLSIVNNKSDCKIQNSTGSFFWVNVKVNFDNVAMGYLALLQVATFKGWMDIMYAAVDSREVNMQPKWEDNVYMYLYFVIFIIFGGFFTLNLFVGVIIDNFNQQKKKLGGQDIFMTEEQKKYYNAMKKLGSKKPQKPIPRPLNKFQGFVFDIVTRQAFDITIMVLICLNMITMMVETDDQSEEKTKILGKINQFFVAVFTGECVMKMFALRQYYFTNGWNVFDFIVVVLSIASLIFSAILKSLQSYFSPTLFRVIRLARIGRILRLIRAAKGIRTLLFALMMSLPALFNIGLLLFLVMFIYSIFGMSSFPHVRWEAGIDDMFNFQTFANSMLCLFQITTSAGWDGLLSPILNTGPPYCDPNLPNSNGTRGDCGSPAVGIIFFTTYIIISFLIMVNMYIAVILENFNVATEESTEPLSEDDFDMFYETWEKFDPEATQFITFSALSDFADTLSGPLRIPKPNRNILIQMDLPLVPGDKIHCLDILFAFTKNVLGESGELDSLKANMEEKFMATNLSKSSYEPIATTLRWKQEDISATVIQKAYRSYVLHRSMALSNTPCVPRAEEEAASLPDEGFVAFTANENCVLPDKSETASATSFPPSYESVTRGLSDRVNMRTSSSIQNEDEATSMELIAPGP
As to the kind of experiment: Inhibition of human Nav1.8 stably expressed in SH-SY-5Y cells (membrane potential dye fluorescence assay). The note with it: SH-SY-5Y hNav1.8 cells; FLIPR membrane potential dye; 10 μM pyrethroid, 250 nM TTX; test concentration range 100 μM-0.05 μM; read-out: hNav1.8 IC50. The assay is classed as cell-based. On the procedure: Inhibition of Human Nav1.8 stably expressed in SH-SY-5Y Cells
A SH-SY-5Y neuroblastoma cell line stably expressing the human Nav1.8 (hNav1.8) ion channel was constructed. This cell line has been used to develop a medium to high throughput assay for determining the ability of test compounds to inhibit membrane depolarisation mediated via the hNav1.8 channel.
SH-SY-5Y hNav1.8 are grown in adherent monolayer culture using 50:50 Ham's F-12/EMEM tissue culture medium supplemented with 15% (v/v) foetal bovine serum; 2 mM L-glutamine, 1% NEAR and 600 μg·ml^−1 Geneticin sulphate. Cells are removed from the tissue culture flask using trypsin/EDTA and re-plated into black walled, clear bottom 96-well assay plates at 50,000 cells·well^−1 24 hours prior to assay.
On the day of assay the cell assay plates are washed to remove cell culture medium using a sodium free assay buffer (145 mM tetramethyl ammonium chloride; 2 mM calcium chloride; 0.8 mM magnesium chloride hexahydrate; 10 mM HEPES; 10 mM glucose; 5 mM potassium chloride, pH 7.4). Fluorescent membrane potential dye solution (FLIPR™ membrane potential dye, Molecular Devices Corporation), containing 10 μM of a pyrethroid to prevent channel inactivation and 250 nM tetrodotoxin (TTX) to reduce interference from TTX-sensitive sodium channels present in the cell line. Test compound, initially dissolved in dimethyl sulfoxide but further diluted in sodium free buffer, is added to achieve the final test concentration range of 100 μM-0.05 μM.
Cell plates are incubated for 30 minutes at room temperature to allow equilibration of dye and test compound. Plates are then transferred to a fluorescence plate reader for fluorescence measurement using an excitation wavelength of 530 nm whilst measuring fluorescence emission at 565 nm. Baseline fluorescence levels are first determined before the addition of a sodium containing buffer (220 mM sodium chloride; 2 mM calcium chloride; 0.8 mM magnesium chloride hexahydrate; 10 mM HEPES; 10 mM glucose; 5 mM potassium chloride. pH 7.4) to cause membrane depolarisation in those cells where channel block has not been effected (final sodium concentration=72.5 mM). Membrane depolarisation is registered by an increase in fluorescence emission at 565 nm.
The change in fluorescence seen in each test well upon the addition of sodium containing buffer is calculated relative to the baseline fluorescence for that well. This figure is then used for calculating the IC50 for each test compound.
As for `CC(c1ccccc1C(F)(F)F)N1CC2CC1CN2C(=O)Nc1ccc(Oc2ccccc2)cc1` (single isomer, unassigned) [Example 60, 5-[1-(2-Trifluoromethyl-phenyl)-ethyl]-2,5-diaza-bicyclo[2.2.1]heptane-2-carboxylic acid (4-phenoxy-phenyl)-amide], the IC50 amounted to 1480 nM.

Take `CC(c1ccccc1Cl)N1CC2CC1CN2C(=O)Nc1ccc(Oc2cccc(F)c2)cc1` (stereo not drawn) [Example 108, 5-[1-(2-Chloro-phenyl)-ethyl]-2,5-diaza-bicyclo[2.2.1]heptane-2-carboxylic acid [4-(3-fluoro-phenoxy)-phenyl]-amide]: the IC50 is 600 nM.

Turning to `CC(c1ccccc1Cl)N1CC2CC1CN2C(=O)Nc1ccc(Oc2ccccc2F)cc1` (stereo not drawn) [Example 109, 5-[1-(2-Chloro-phenyl)-ethyl]-2,5-diaza-bicyclo[2.2.1]heptane-2-carboxylic acid [4-(2-fluoro-phenoxy)-phenyl]-amide], the IC50 stood at 680 nM.

On to `Cc1ccsc1C(C)N1CC2CC1CN2C(=O)Nc1ccc(C(F)(F)F)cc1` (stereo not drawn) [Example 15, 5-[1-(3-Methyl-thiophen-2-yl)-ethyl]-2,5-diaza-bicyclo[2.2.1]heptane-2-carboxylic acid (4-trifluoromethyl-phenyl)-amide], for which the IC50 worked out at 3040 nM.

For `CC(c1ccc(F)cc1)N1CC2CC1CN2C(=O)Nc1cccc(C(F)(F)F)c1` (stereo not drawn) [Example 47, 5-[1-(4-Fluoro-phenyl)-ethyl]-2,5-diaza-bicyclo[2.2.1]heptane-2-carboxylic acid (3-trifluoromethyl-phenyl)-amide], the IC50 was 2610 nM.

For `Cc1ccccc1C(C)N1CC2CC1CN2C(=O)Nc1ccc(Oc2ccccc2)cc1` (stereo not drawn) [Example 30, 5-(1-o-Tolyl-ethyl)-2,5-diaza-bicyclo[2.2.1]heptane-2-carboxylic acid (4-phenoxy-phenyl)-amide], the IC50 was 320 nM.

With `Cc1ccc(C(C)N2CC3CC2CN3C(=O)Nc2ccc(Oc3ccc(F)cc3)cc2)c(C)c1` (stereo not drawn) [Example 116, 5-[1-(2,4-Dimethyl-phenyl)-ethyl]-2,5-diaza-bicyclo[2.2.1]heptane-2-carboxylic acid [4-(4-fluoro-phenoxy)-phenyl]-amide], the IC50 came to 290 nM.

On to `CC(c1ccccc1Cl)N1CC2CC1CN2C(=O)Nc1ccc(Oc2ccc(F)cc2)cc1` (single isomer, unassigned) [Example 76, 5-[1-(2-Chloro-phenyl)-ethyl]-2,5-diaza-bicyclo[2.2.1]heptane-2-carboxylic acid [4-(4-fluoro-phenoxy)-phenyl]-amide], for which the IC50 is 270 nM.

Regarding `O=C(Nc1ccc(C(F)(F)F)cc1)N1CC2CC1CN2C1Cc2ccc(F)cc2C1` (stereo not drawn) [Example 130, 5-(5-Fluoro-indan-2-yl)-2,5-diaza-bicyclo[2.2.1]heptane-2-carboxylic acid (4-trifluoromethyl-phenyl)-amide], the IC50 turned out to be 3610 nM.

Turning to `CC(c1ccccc1Cl)N1CC2CC1CN2C(=O)c1ccc(Oc2ccc(F)cc2)c(F)c1` (stereo not drawn) [Example 179, {5-[1-(2-Chloro-phenyl)-ethyl]-2,5-diaza-bicyclo[2.2.1]hept-2-yl}-[3-fluoro-4-(4-fluoro-phenoxy)-phenyl]-methanone methanesulfonate salt], the IC50 was found to be 1340 nM.

As to `CC(c1ccccc1Cl)N1CC2CC1CN2C(=O)Nc1ccc(Oc2ccccc2)cc1` (single isomer, unassigned) [Example 11, 5-[1-(2-Chloro-phenyl)-ethyl]-2,5-diaza-bicyclo[2.2.1]heptane-2-carboxylic acid (4-phenoxy-phenyl)-amide], the IC50 stood at 1800 nM.

For `COCCCOc1ccc(NC(=O)N2CC3CC2CN3C(C)c2ccccc2C)cc1` (stereo not drawn) [Example 27, 5-(1-o-Tolyl-ethyl)-2,5-diaza-bicyclo[2.2.1]heptane-2-carboxylic acid [4-(3-methoxy-propoxy)-phenyl]-amide], the IC50 amounted to 8480 nM.

Consider `CC(c1ccccc1Cl)N1CC2CC1CN2C(=O)c1cc2cc(Cl)ccc2[nH]1` (stereo not drawn) [Example 150, (5-Chloro-1H-indol-2-yl)-{5-[1-(2-chloro-phenyl)-ethyl]-2,5-diaza-bicyclo[2.2.1]hept-2-yl}-methanone], for which the IC50 came to 18200 nM.

For `Cc1ccccc1C(C)N1CC2CC1CN2C(=O)Nc1ccc(Oc2ccccc2)cc1` (stereo not drawn) [Example 32, 5-(1-o-Tolyl-ethyl)-2,5-diaza-bicyclo[2.2.1]heptane-2-carboxylic acid (4-phenoxy-phenyl)-amide], the IC50 is 710 nM.

Regarding `CC(c1ccccc1Cl)N1CC2CC1CN2C(=O)Nc1ccc(Oc2ccc(F)cc2)cc1` (stereo not drawn) [Example 96, 5-[1-(2-Chloro-phenyl)-ethyl]-2,5-diaza-bicyclo[2.2.1]heptane-2-carboxylic acid [4-(4-fluoro-phenoxy)-phenyl]-amide methanesulfonate salt], the IC50 was found to be 370 nM.

In the case of `CC(c1c(F)cccc1F)N1CC2CC1CN2C(=O)Nc1ccc(Oc2ccccc2)cc1` (stereo not drawn) [Example 10, 5-[1-(2,6-Difluoro-phenyl)-ethyl]-2,5-diaza-bicyclo[2.2.1]heptane-2-carboxylic acid (4-phenoxy-phenyl)-amide], the IC50 stood at 1100 nM.

In the case of `O=C(NCc1ccc(Oc2ccc(F)cc2)cc1)N1CC2CC1CN2C1Cc2ccc(F)cc2C1` (stereo not drawn) [Example 146, 5-(5-Fluoro-indan-2-yl)-2,5-diaza-bicyclo[2.2.1]heptane-2-carboxylic acid 4-(4-fluoro-phenoxy)-benzylamide], the IC50 was 1280 nM.

Turning to `CC(c1ccccc1Cl)N1CCC2(CCN(C(=O)Nc3ccc(Oc4ccc(F)cc4)cc3)C2)C1` (stereo not drawn) [Example 111, 7-[1-(2-Chloro-phenyl)-ethyl]-2,7-diaza-spiro[4.4]nonane-2-carboxylic acid [4-(4-fluoro-phenoxy)-phenyl]-amide], the IC50 came to 380 nM.

With `Cc1cc(F)ccc1C(C)N1CC2CC1CN2C(=O)Nc1ccc(C(=O)c2ccccc2)cc1` (stereo not drawn) [Example 71, 5-[1-(4-Fluoro-2-methyl-phenyl)-ethyl]-2,5-diaza-bicyclo[2.2.1]heptane-2-carboxylic acid (4-benzoyl-phenyl)-amide], the IC50 was found to be 2360 nM.

Regarding `Cc1ccccc1C(C)N1CC2CC1CN2C(=O)Nc1ccc(C(F)(F)F)cc1` (stereo not drawn) [Example 6, 5-(1-o-Tolyl-ethyl)-2,5-diaza-bicyclo[2.2.1]heptane-2-carboxylic acid (4-trifluoromethyl-phenyl)-amide], the IC50 was determined as 990 nM.

For `CC(c1ccccc1Cl)N1CC2CC1CN2C(=O)Nc1ccc(Oc2ccccc2)cc1` (single isomer, unassigned) [Example 12, 5-[1-(2-Chloro-phenyl)-ethyl]-2,5-diaza-bicyclo[2.2.1]heptane-2-carboxylic acid (4-phenoxy-phenyl)-amide], the IC50 amounted to 360 nM.

`O=C(Nc1ccc(Oc2cccc(F)c2)cc1)N1CC2CC1CN2C1Cc2ccccc2C1` (stereo not drawn) [Example 114, 5-Indan-2-yl-2,5-diaza-bicyclo[2.2.1]heptane-2-carboxylic acid [4-(3-fluoro-phenoxy)-phenyl]-amide]: the IC50 amounted to 80 nM.

With `CC(c1ccccc1Cl)N1CC2CC1CN2C(=O)c1ccc(Oc2ccc(F)cc2)cc1` (stereo not drawn) [Example 152, {5-[1-(2-Chloro-phenyl)-ethyl]-2,5-diaza-bicyclo[2.2.1]hept-2-yl}-[4-(4-fluoro-phenoxy)-phenyl]-methanone], the IC50 turned out to be 2520 nM.

As to `O=C(Nc1ccc(Oc2ccc(F)cc2)cc1)N1CC2CC1CN2C1CCc2cc(F)ccc2C1` (stereo not drawn) [Example 102, 5-(6-Fluoro-1,2,3,4-tetrahydro-naphthalen-2-yl)-2,5-diaza-bicyclo[2.2.1]heptane-2-carboxylic acid [4-(4-fluoro-phenoxy)-phenyl]-amide], the IC50 was 710 nM.

Staying with this assay, now noted: hNav1.8 IC50, SH-SY-5Y hNav1.8 cells; FLIPR membrane potential dye; 10 μM pyrethroid, 250 nM TTX; test concentration range 100 μM-0.05 μM.
For `O=C(Cc1ccc(Oc2ccccc2)cc1)N1CC2CC1CN2C1Cc2ccc(F)cc2C1` (stereo not drawn) [Example 134, 1-[5-(5-Fluoro-indan-2-yl)-2,5-diaza-bicyclo[2.2.1]hept-2-yl]-2-(4-phenoxy-phenyl)-ethanone], the IC50 was found to be 1600 nM.

In turn, `CC(c1ccccc1Br)N1CC2CC1CN2C(=O)Cc1ccc(Oc2ccc(F)cc2)cc1` (stereo not drawn) [Example 153, 1-{5-[1-(2-Bromo-phenyl)-ethyl]-2,5-diaza-bicyclo[2.2.1]hept-2-yl}-2-[4-(4-fluoro-phenoxy)-phenyl]-ethanone] came in with an IC50 of 3330 nM.

`Cc1ccccc1C(C)N1CC2CC1CN2C(=O)Cc1ccc(Oc2ccccc2)cc1` (stereo not drawn) [Example 37, 2-(4-Phenoxy-phenyl)-1-[5-(1-o-tolyl-ethyl)-2,5-diaza-bicyclo[2.2.1]hept-2-yl]-ethanone] had an IC50 of 960 nM.

Source of the values: US20100204224A1, “AZACYCLIC COMPOUNDS AS INHIBITORS OF SENSORY NEURONE SPECIFIC SODIUM CHANNELS” (priority 2005, published 2010).
